# Reference: patent EP0519877B1, “3-Acylamino-2-pyrrolidinones as enhancers of the processes of learning and memory and pharmaceutical compositions containing same” (Sigma-Tau Industrie Farmaceutiche Riunite S.p.A., priority 1991, dated 1992)
# Tested on: Male CD1 mice
# Assay: Passive avoidance test following ECS-induced amnesia
# Assay type: in vivo
# Conditions: i.p., 30 minutes before training, retention assessed 24 hours later
# Method: In order to assess the antiamnesic activity the passive avoidance test in mice was used.
# Male CD1 mice (Charles River) weighting 25-26 g fed on a normal diet were used for the ECS-induced amnesia test.
# The compounds were administered i.p.at doses equimolar to 9 and 0.9 mg/kg […]. The compounds were dissolved in saline.
# The apparatus for passive avoidance conditioning was a black plastic chamber (42 x 42 cm, height 40 cm) provided with a floor constructed of metal rods that could be electrified. From the front wall extended a white runway, 30 cm long and 10 cm wide provided with side walls 12 cm high, which led into the box through a guillotine door.
# 30 minutes following treatment with the compounds, the animals were placed on the runway. After one minute of adaptation, the door was raised and the time employed by the animal to enter the darkened box with all four feet was recorded.
# Upon entry, the guillotine door was lowered and three seconds thereafter the rods were electrified, 0.24 mA for 2 seconds.
# The mouse was then removed from the chamber and immediately administered an electroshock delivered through spring clips attached to the ears (square wave, intensity 20 mA, amplitude 0.6 msec, duration 0.5 s, frequency 50 Hz).
# Immediately thereafter the animal was placed in the housing cage. Retention was assessed 24 hours later by placing the animal on the runway and again evaluating the latency in entering the chamber, using an end-point of 300 seconds (Bammer, loc.cit.).
# In each experiment, two groups of animals in addition to the treated ones were used, that were defined as follows: • (1) ceiling control animals (treated with placebo and not subjected to amnesia treatment) to ensure that these animals not treated with the amnesia agent remembered the task; • (2) base-line control animals (treated with placebo and subjected to amnesia treatment) to ensure that ECS produced amnesia in the animals not treated with the compounds of the present invention.
# The sum ΣAij encompasses all the possible pairs obtained by combining each term Xi with each term Xj.
# [1] = dose equimolar to 0.9 mg/kg PIRACETAM
# [2] = dose equimolar to 9 mg/kg PIRACETAM
Structure (SMILES),AR (percentage of amnesia reversal) [1],AR (percentage of amnesia reversal) [2]
"N[C@H]1CCNC1=O [ST 802, (S)-3-amino-2-pyrrolidinone, reference compound]",24%,–
"O=C(N[C@H]1CCNC1=O)c1cccc(C(F)(F)F)c1 [ST 835, (S)-3-(3-trifluoromethylbenzoylamino)-2-pyrrolidinone]",51%,58%
"O=CN[C@H]1CCNC1=O [ST 879, (S)-3-(formylamino)-2-pyrrolidinone]",53%,9%
